In ChEMBL document CHEMBL1614631, “Comparative evaluation of oral systemic exposure of 56 xenobiotics in rat, dog, monkey and human” (Xenobiotica, 2005):

Legend:
[1] = Dose normalised AUC in rat after po administration; conditions: in vivo
[2] = Dose normalised AUC in dog after po administration; conditions: in vivo
[3] = Dose normalised AUC in monkey after po administration; conditions: macaca, in vivo
[4] = Dose normalised AUC in human after po administration; conditions: in vivo

SMILES | DNAUC [1] | DNAUC [2] | DNAUC [3] | DNAUC [4]
Cc1cccc(C)c1NC(=O)NCCCNC(C)C [RECAINAM] | 6.3 kg·min/L | 72.4 kg·min/L | 48 kg·min/L | 98.57 kg·min/L
O=P(O)(O)C(Sc1ccc(Cl)cc1)P(=O)(O)O [TILUDRONIC ACID] | 37.2 kg·min/L | 129.6 kg·min/L | 171.6 kg·min/L | 286.32 kg·min/L
CCCCCNC(=O)c1coc([C@H]2[C@@H](Cc3ccccc3CCC(=O)O)[C@@H]3CC[C@H]2O3)n1 [IFETROBAN] | 2.86 kg·min/L | 9.48 kg·min/L | 13.02 kg·min/L | 77.32 kg·min/L
CC(C)NCC(O)COc1cccc2ccccc12 (centres undefined) [PROPRANOLOL] | 37.8 kg·min/L | 8.32 kg·min/L | 1.32 kg·min/L | 17.33 kg·min/L
CS(=O)(=O)Nc1ccc(F)c([C@@H](O)CN)c1 [NS-49] | 33.3 kg·min/L | 382.2 kg·min/L | 165.6 kg·min/L | 306 kg·min/L
CC(=O)[C@H]1CC[C@H]2[C@@H]3CC[C@H]4C[C@](C)(O)CC[C@]4(C)[C@H]3CC[C@]12C [GANAXOLONE] | 0.76 kg·min/L | 77.25 kg·min/L | 1.39 kg·min/L | 5.65 kg·min/L
COc1ccc(C(C)C)cc1CN[C@H]1C2CCN(CC2)[C@H]1C(c1ccccc1)c1ccccc1 [EZLOPITANT] | 2.36 kg·min/L | 10.82 kg·min/L | 0.6 kg·min/L | 125 kg·min/L
O=C(O)CCc1nc(-c2ccccc2)c(-c2ccccc2)o1 [OXAPROZIN] | 0.04 kg·min/L | 3.2 kg·min/L | 2.85 kg·min/L | 9.07 kg·min/L
NS(=O)(=O)Cc1noc2ccccc12 [ZONISAMIDE] | 663 kg·min/L | 1458 kg·min/L | 2097 kg·min/L | 3030 kg·min/L
COc1ccc2c(c1)c(CC(=O)O)c(C)n2C(=O)c1ccc(Cl)cc1 [INDOMETHACIN] | 2056 kg·min/L | 793.3 kg·min/L | 133.1 kg·min/L | 488.62 kg·min/L
C[C@H](C(=O)O)c1ccc2oc(-c3ccc(F)cc3)nc2c1 [FLUNOXAPROFEN] | 14620.68 kg·min/L | 960.78 kg·min/L | 1464.8 kg·min/L | 2794 kg·min/L
O=C(c1ccccc1)c1ccc2n1CCC2C(=O)O (centres undefined) [KETOROLAC] | 285 kg·min/L | 1352.94 kg·min/L | 1912.26 kg·min/L | 1256.47 kg·min/L
CN1CCN(c2c(F)cc3c(=O)c(C(=O)O)cn(CCF)c3c2F)CC1 [FLEROXACIN] | 152.4 kg·min/L | 618 kg·min/L | 133.54 kg·min/L | 432.41 kg·min/L
CCC1(C)CC(=O)NC1=O (centres undefined) [ETHOSUXIMIDE] | 285.71 kg·min/L | 2166.68 kg·min/L | 2792.79 kg·min/L | 6666.67 kg·min/L
COc1c(N2C[C@@H]3CCCN[C@@H]3C2)c(F)cc2c(=O)c(C(=O)O)cn(C3CC3)c12 [MOXIFLOXACIN] | 18.35 kg·min/L | 245.95 kg·min/L | 45.09 kg·min/L | 372.73 kg·min/L
CC1COc2c(N3CCN(C)CC3)c(F)cc3c(=O)c(C(=O)O)cn1c23 (centres undefined) [OFLOXACIN] | 32.85 kg·min/L | 407.7 kg·min/L | 218.1 kg·min/L | 297.93 kg·min/L

SMILES | DNAUC [1] | DNAUC [2] | DNAUC [3] | DNAUC [4]
CC(C)(C)NC(=O)[C@@H]1CN(Cc2cccnc2)CCN1C[C@@H](O)C[C@@H](Cc1ccccc1)C(=O)N[C@H]1c2ccccc2C[C@H]1O.O [INDINAVIR] | 3.13 kg·min/L | 46.1 kg·min/L | 5.34 kg·min/L | 52.98 kg·min/L
COc1nccc(-c2c(-c3ccc(F)cc3)ncn2C2CCNCC2)n1 [SB-242235] | 37.61 kg·min/L | 147.59 kg·min/L | 115.9 kg·min/L | 141 kg·min/L
Cc1c(C)c2c(c(C)c1O)CCC(C)(COc1ccc(CC3SC(=O)NC3=O)cc1)O2 (centres undefined) [TROGLITAZONE] | 13.44 kg·min/L | 61.2 kg·min/L | 34.08 kg·min/L | 80.71 kg·min/L
CN(C)CCCC1(c2ccc(F)cc2)OCc2cc(C#N)ccc21 (centres undefined) [CITALOPRAM] | 5.88 kg·min/L | 8.75 kg·min/L | 9.85 kg·min/L | 200 kg·min/L
CCn1cc(C(=O)O)c(=O)c2cc(F)c(N3CCN(C)CC3)cc21 [PEFLOXACIN] | 67.2 kg·min/L | 120 kg·min/L | 259.2 kg·min/L | 505.26 kg·min/L
COC(=O)C1=C(C)NC(C)=C(C(=O)OCC(C)C)C1c1ccccc1[N+](=O)[O-] (centres undefined) [NISOLDIPINE] | 0.49 kg·min/L | 2.64 kg·min/L | 0.84 kg·min/L | 1.2 kg·min/L
CCN(CC)CC(=O)Nc1c(C)cccc1C [LIDOCAINE] | 1.64 kg·min/L | 8.38 kg·min/L | 3.79 kg·min/L | 38.04 kg·min/L
CC1=NC(=O)C(CCN(C(C)C)C(C)C)(c2ccccc2)C2CCCCN12 (centres undefined) [ACTISOMIDE] | 14.49 kg·min/L | 71.7 kg·min/L | 26.46 kg·min/L | 51.51 kg·min/L
NS(=O)(=O)c1cc(C(=O)O)c(NCc2ccco2)cc1Cl [FUROSEMIDE] | 44.73 kg·min/L | 57.84 kg·min/L | 43.2 kg·min/L | 184.62 kg·min/L
CC(C)N(CCC(C(N)=O)(c1ccccc1)c1ccccn1)C(C)C (centres undefined) [DISOPYRAMIDE] | 6.07 kg·min/L | 101.6 kg·min/L | 2.2 kg·min/L | 550.48 kg·min/L
N[C@@H]1[C@H]2CN(c3nc4c(cc3F)c(=O)c(C(=O)O)cn4-c3ccc(F)cc3F)C[C@@H]12 [TROVAFLOXACIN] | 51 kg·min/L | 44.25 kg·min/L | 120.6 kg·min/L | 540 kg·min/L
O=C(O)c1cn(C2CC2)c2cc(N3CCNCC3)c(F)cc2c1=O [CIPROFLOXACIN] | 9.36 kg·min/L | 32.75 kg·min/L | 85.2 kg·min/L | 77.03 kg·min/L
CC[C@H]1OC(=O)[C@H](C)[C@@H](O[C@H]2C[C@@](C)(OC)[C@@H](O)[C@H](C)O2)[C@H](C)[C@@H](O[C@@H]2O[C@H](C)C[C@H](N(C)C)[C@H]2O)[C@](C)(O)C[C@@H](C)CN(C)[C@H](C)[C@@H](O)[C@]1(C)O [AZITHROMYCIN] | 11.42 kg·min/L | 140.4 kg·min/L | 17.52 kg·min/L | 33.15 kg·min/L
COc1ccc(C(CN(C)C)C2(O)CCCCC2)cc1 (centres undefined) [VENLAFAXINE] | 1.97 kg·min/L | 48 kg·min/L | 1.8 kg·min/L | 1 kg·min/L
COCCc1ccc(OCC(O)CNC(C)C)cc1 (centres undefined) [METOPROLOL] | 58 kg·min/L | 15.8 kg·min/L | 8.33 kg·min/L | 25.33 kg·min/L
